According to patent US6153740A, “cDNA encoding nucleoside transporter” (University of Alberta, priority 1997, dated 2000):
“Also recorded” adds a separate entry of the source.

Key:
[1] = target: T1, CNT1 (Rattus norvegicus, UniProt Q62674); test: inhibition of CNT1-mediated nucleoside (uridine, AZT, ddC) transport in Xenopus oocytes; format: cell-based; settings: for selective inhibition of uridine and thymidine fluxes (rCNT1): adenosine, cytidine, uridine>>guanosine, inosine; for effect on expressed uridine fluxes/transport: inhibitor 1 mM
T1 sequence (Q62674 1-648): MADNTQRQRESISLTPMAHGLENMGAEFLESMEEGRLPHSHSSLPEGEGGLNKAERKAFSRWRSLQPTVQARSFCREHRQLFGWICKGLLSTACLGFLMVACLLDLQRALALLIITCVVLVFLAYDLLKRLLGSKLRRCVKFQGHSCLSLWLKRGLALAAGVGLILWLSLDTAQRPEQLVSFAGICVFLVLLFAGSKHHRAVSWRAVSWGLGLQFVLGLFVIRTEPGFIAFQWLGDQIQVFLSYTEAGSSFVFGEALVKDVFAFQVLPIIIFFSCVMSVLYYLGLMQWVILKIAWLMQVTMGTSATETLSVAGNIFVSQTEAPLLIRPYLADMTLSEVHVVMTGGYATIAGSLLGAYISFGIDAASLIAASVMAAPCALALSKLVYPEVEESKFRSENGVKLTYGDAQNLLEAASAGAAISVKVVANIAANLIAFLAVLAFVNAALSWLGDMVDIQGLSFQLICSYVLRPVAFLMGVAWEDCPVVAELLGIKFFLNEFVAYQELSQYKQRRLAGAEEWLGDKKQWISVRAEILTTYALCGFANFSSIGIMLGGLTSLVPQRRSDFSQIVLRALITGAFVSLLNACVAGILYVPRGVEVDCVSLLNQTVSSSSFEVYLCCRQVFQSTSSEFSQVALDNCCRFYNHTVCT
Method: (§1) Oocytes were injected with water or RNA transcribed in vitro from the nucleoside transporter cDNA (pQQH1). […] For panels c and d, the permeant concentration was 10 μM and competing nonradioactive nucleosides were present at a concentration of 1 mM.
(§2) Remaining template was removed by digestion with RQ1 DNase. Oocytes were treated with collagenase to remove follicular layers (Huang et al, 1993) and injected with 10 ng of pQQH1 cRNA or water. […] At the end of the incubation, extracellular label was removed by six rapid ice-cold washes in the appropriate transport buffer. Individual oocytes were dissolved in 5% SDS for quantitation of oocyte-associated ^3 H by liquid scintillation counting (LS 6000 IC, Beckman).

[2] = target: T2, hCNT1b (Homo sapiens, UniProt O00337); test: inhibition of hCNT1b-mediated influx of [3H]uridine in Xenopus oocytes; format: cell-based; settings: uridine 10 μM; for inhibition of uridine fluxes, hCNT1b: competitor 1 mM (FIG. 12B)
T2 sequence (O00337 2-649 V189I/N409S/D521N): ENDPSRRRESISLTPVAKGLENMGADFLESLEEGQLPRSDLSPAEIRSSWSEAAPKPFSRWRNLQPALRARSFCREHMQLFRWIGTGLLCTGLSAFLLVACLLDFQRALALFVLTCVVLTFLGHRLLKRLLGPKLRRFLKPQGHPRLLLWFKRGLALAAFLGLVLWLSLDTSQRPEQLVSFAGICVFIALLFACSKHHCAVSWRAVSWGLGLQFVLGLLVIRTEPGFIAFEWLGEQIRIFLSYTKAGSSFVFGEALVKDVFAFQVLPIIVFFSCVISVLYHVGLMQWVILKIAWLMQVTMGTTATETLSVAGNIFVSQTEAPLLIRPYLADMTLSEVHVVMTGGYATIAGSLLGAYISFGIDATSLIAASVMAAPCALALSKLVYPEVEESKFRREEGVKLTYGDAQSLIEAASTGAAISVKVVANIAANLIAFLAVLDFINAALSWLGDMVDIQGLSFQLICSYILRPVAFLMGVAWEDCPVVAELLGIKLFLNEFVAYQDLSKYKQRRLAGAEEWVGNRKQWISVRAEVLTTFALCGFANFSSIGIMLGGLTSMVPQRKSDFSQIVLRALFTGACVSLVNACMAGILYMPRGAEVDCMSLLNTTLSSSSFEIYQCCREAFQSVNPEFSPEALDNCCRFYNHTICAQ
Text: H2 O, water-injected oocytes.

[3] = target: T3, hCNT1a (Homo sapiens, UniProt O00337); test: inhibition of hCNT1a-mediated influx of [3H]uridine in Xenopus oocytes; settings: uridine 10 μM; for inhibition of uridine fluxes, hCNT1a: competitor 1 mM (FIG. 12A), guanosine also in FIG. 13
T3 sequence (O00337 with tags, fused parts or gaps E34G/INS140V): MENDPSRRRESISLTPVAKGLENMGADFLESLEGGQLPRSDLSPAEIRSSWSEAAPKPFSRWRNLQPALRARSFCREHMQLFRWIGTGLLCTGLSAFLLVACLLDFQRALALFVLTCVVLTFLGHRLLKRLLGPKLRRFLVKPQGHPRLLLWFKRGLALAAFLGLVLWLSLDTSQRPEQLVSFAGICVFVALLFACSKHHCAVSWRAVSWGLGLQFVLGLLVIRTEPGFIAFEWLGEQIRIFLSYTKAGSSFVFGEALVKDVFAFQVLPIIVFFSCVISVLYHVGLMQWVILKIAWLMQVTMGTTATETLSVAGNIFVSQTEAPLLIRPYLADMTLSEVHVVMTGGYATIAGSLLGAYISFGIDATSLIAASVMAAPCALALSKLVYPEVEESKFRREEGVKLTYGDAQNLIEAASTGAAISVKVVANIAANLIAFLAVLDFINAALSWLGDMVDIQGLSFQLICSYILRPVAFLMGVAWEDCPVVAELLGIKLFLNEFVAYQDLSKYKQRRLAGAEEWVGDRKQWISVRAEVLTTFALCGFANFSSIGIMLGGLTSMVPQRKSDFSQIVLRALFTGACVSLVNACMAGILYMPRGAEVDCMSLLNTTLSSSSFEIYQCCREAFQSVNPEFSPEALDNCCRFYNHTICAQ
Method: H2 O, water-injected oocytes. Fluxes were not corrected for the contribution of endogenous transport activity.
(§3) Defolliculated oocytes (Huang et al. 1993) were injected with either 10 nl of water containing 10 ng RNA transcript or 10 nl of water alone. Nucleoside uptake was measured after 3 d and was traced with the respective [^3 H] or [^14 C]nucleoside (Moravek Biochemicals)(5 μC 3H/ml, 1 μC 14C/ml). […] The transport buffer for adenosine influx experiments contained 1 μM deoxycoformycin to inhibit adenosine deaminase activity. Results are presented as means ±SEM for 10-12 individual oocytes. Kinetic constants were determined by non-linear regression analysis (ENZFITTER, Elsevier-Biosoft). Each experiment was performed at least twice on different batches of oocytes.

[4] = target: T1, CNT1; test: uptake/influx of radiolabelled nucleosides in Xenopus oocytes injected with pQQH1 (rat CNT1) cRNA; format: cell-based
Method: as §1
Oocytes injected with water or in vitro transcribed RNA from pQQH1 were incubated with radiolabeled permanent (10 μM) for 30 min (open columns) or 1 h (hatched columns) at 20° C. Each value represents the mean ±S. E. of 8-10 ooctyes.
as §2

[5] = system: human erythrocytes; settings: cited from earlier work
[6] = system: human erythrocyte es transporter; settings: cited from earlier work
[7] = target: T2, hCNT1b; test: influx of radiolabelled nucleosides in Xenopus oocytes injected with hCNT1b RNA transcript; format: cell-based
Method: as §3

[8] = target: T3, hCNT1a; test: influx of radiolabelled nucleosides in Xenopus oocytes injected with hCNT1a RNA transcript
Method: Oocytes were injected with either water alone or water containing hCNT1a RNA transcript.
Oocytes were injected with either water alone (.tangle-solidup.) or water containing hCNT1a RNA transcript (.smallcircle.,.circle-solid.).
Adenosine, guanosine and AZT (10 μM) fluxes were compared in the same batch of oocytes injected either with water (open columns) or with RNA transcript for hCNT1a or rCNT1 (hatched and solid columns, respectively).
as §3

[9] = substrate: O=c1ccn([C@@H]2O[C@H](CO)[C@@H](O)[C@H]2O)c(=O)[nH]1; test: cells, lysate or membranes; settings: other: hCNT1a; 20.0 °C

Molecule: Nc1ccn([C@@H]2O[C@H](CO)[C@@H](O)[C@H]2O)c(=O)n1 [cytidine]
- selective inhibition of uridine and thymidine fluxes (rCNT1) [1]: selective inhibition
- inhibition of uridine fluxes, hCNT1b [2]: inhibited
- inhibition of uridine fluxes, hCNT1a [3]: inhibited

Molecule: OC[C@@H]1CC[C@H](n2cnc3c(O)ncnc32)O1 [ddl, 2',3'-dideoxyinosine]
- effect on expressed uridine fluxes/transport [1]: no effect

Molecule: Nc1ccn([C@H]2CC[C@@H](CO)O2)c(=O)n1 [ddC, 2',3'-dideoxycytidine]
- CNT1-mediated uptake/transport ([4]; 10 μM permeant): large increases
- Na+ dependence of initial rate of expressed uptake ([4]; 10 μM, 10-min flux): 93%
- Vmax ([4]; rat CNT1, permeant = labelled substance): 20 pmol/oocyte.min^-1
- IC50 [1]: < 1 mM
- rate of entry into human erythrocytes relative to those of thymidine and cytidine [5]: < 2%
- inhibition of hCNT1b-mediated influx of uridine ([2]; analog 5 mM (FIG. 12B)): inhibited
- Km ([6]; Domin et al, 1993): 23 mM
- transport by equilibrative nucleoside transporters [6]: low affinity es substrate
- inhibition of hCNT1a-mediated influx of uridine ([3]; analog 5 mM (FIG. 12A)): inhibited

Molecule: Nc1nc2c(ncn2[C@@H]2O[C@H](CO)[C@@H](O)[C@H]2O)c(=O)[nH]1 [guanosine]
- fluxes, hCNT1b (results not shown) [7]: very low guanosine fluxes
- permeant quality, hCNT1 [8]: poor CNT1 permeant; also recorded: poor hCNT1 permeants
- mediated flux, hCNT1a ([8]; 10 μM permeant (FIG. 14)): 0.06±0.01 pmol/oocyte.10 min^-1
- mediated flux, rCNT1 ([4]; 10 μM permeant (FIG. 14)): 0.05±0.01 pmol/oocyte.10 min^-1
- selective inhibition of uridine and thymidine fluxes (rCNT1) [1]: >>guanosine, inosine
- inhibition of uridine fluxes, hCNT1b [2]: not
- inhibition of uridine fluxes, hCNT1a [3]: not and not inhibited

Molecule: OC[C@H]1O[C@@H](n2cnc3c(O)ncnc32)[C@H](O)[C@@H]1O [inosine]
- selective inhibition of uridine and thymidine fluxes (rCNT1) [1]: >>guanosine, inosine
- inhibition of uridine fluxes, hCNT1b [2]: not
- inhibition of uridine fluxes, hCNT1a [3]: not

Molecule: O=c1ccn([C@@H]2O[C@H](COP(=O)(O)OP(=O)(O)O)[C@@H](O)[C@H]2O)c(=O)[nH]1 [UDP]
- effect on expressed uridine fluxes/transport [1]: no effect

Molecule: O=c1ccn([C@@H]2O[C@H](COP(=O)(O)OP(=O)(O)OP(=O)(O)O)[C@@H](O)[C@H]2O)c(=O)[nH]1 [UTP]
- effect on expressed uridine fluxes/transport [1]: no effect

Molecule: Nc1nc2c(ncn2[C@H]2CC[C@@H](CO)O2)c(=O)[nH]1 [ddG, 2',3'-dideoxyguanosine]
- effect on expressed uridine fluxes/transport [1]: no effect

Molecule: O=c1cc[nH]c(=O)[nH]1 [Uracil]
- effect on expressed uridine fluxes/transport [1]: no effect

Molecule: Cc1cn([C@H]2C[C@H](O)[C@@H](CO)O2)c(=O)[nH]c1=O [thymidine]
- selective inhibition of uridine and thymidine fluxes (rCNT1) [1]: selective inhibition
- inhibition of uridine fluxes, hCNT1b [2]: inhibited
- inhibition of uridine fluxes, hCNT1a [3]: inhibited

Molecule: O=c1ccn([C@@H]2O[C@H](COP(=O)(O)O)[C@@H](O)[C@H]2O)c(=O)[nH]1 [UMP]
- effect on expressed uridine fluxes/transport [1]: no effect

B1: hCNT1a (Homo sapiens) (protein)
chain: MENDPSRRRESISLTPVAKGLENMGADFLESLEGGQLPRSDLSPAEIRSSWSEAAPKPFSRWRNLQPALRARSFCREHMQLFRWIGTGLLCTGLSAFLLVACLLDFQRALALFVLTCVVLTFLGHRLLKRLLGPKLRRFLVKPQGHPRLLLWFKRGLALAAFLGLVLWLSLDTSQRPEQLVSFAGICVFVALLFACSKHHCAVSWRAVSWGLGLQFVLGLLVIRTEPGFIAFEWLGEQIRIFLSYTKAGSSFVFGEALVKDVFAFQVLPIIVFFSCVISVLYHVGLMQWVILKIAWLMQVTMGTTATETLSVAGNIFVSQTEAPLLIRPYLADMTLSEVHVVMTGGYATIAGSLLGAYISFGIDATSLIAASVMAAPCALALSKLVYPEVEESKFRREEGVKLTYGDAQNLIEAASTGAAISVKVVANIAANLIAFLAVLDFINAALSWLGDMVDIQGLSFQLICSYILRPVAFLMGVAWEDCPVVAELLGIKLFLNEFVAYQDLSKYKQRRLAGAEEWVGDRKQWISVRAEVLTTFALCGFANFSSIGIMLGGLTSMVPQRKSDFSQIVLRALFTGACVSLVNACMAGILYMPRGAEVDCMSLLNTTLSSSSFEIYQCCREAFQSVNPEFSPEALDNCCRFYNHTICAQ
- Km [9]: 45 ± 8 µM
